Measurements from PMC8213057, “Targeting ALK2: An Open Science Approach to Developing Therapeutics for the Treatment of Diffuse Intrinsic Pontine Glioma” (Journal of Medicinal Chemistry, 2020).

Columns and labels:
KSR2 = biological target: T1, KSR2 (Homo sapiens, UniProt Q6VAB6); assay: biochemical; settings: read-out: % enzyme activity, 1 μM; Run 1, Run 2
T1 sequence (Q6VAB6 1-950): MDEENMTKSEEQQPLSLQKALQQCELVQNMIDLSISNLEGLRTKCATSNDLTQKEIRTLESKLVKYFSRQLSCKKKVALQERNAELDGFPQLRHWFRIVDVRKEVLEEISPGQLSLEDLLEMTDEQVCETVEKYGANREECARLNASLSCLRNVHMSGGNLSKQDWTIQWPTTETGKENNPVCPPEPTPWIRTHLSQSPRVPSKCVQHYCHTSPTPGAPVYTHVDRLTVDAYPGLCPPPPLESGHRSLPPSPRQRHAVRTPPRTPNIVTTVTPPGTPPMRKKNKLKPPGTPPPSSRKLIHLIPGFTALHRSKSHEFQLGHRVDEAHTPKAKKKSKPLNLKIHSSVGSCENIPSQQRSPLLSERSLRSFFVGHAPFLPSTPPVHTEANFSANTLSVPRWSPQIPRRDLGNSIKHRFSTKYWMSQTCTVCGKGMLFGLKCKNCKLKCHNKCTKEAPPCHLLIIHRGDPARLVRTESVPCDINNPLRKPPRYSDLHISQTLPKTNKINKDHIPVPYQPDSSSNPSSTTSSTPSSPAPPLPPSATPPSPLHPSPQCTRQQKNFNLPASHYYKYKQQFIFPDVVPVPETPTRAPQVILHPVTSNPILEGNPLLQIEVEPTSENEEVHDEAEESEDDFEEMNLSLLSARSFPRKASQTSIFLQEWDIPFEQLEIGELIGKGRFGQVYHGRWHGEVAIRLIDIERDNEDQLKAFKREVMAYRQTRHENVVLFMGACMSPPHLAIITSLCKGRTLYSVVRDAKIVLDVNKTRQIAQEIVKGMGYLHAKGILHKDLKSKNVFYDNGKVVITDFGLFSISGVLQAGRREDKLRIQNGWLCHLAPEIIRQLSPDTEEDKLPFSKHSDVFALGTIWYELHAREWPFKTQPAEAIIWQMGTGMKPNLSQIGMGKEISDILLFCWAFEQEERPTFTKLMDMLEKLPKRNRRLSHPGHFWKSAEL

STK32C/YANK3 = STK32C/YANK3 (Homo sapiens, UniProt Q86UX6); assay: biochemical; settings: read-out: % enzyme activity, 1 μM; Run 1, Run 2
Chain of STK32C/YANK3 (Q86UX6 whole entry): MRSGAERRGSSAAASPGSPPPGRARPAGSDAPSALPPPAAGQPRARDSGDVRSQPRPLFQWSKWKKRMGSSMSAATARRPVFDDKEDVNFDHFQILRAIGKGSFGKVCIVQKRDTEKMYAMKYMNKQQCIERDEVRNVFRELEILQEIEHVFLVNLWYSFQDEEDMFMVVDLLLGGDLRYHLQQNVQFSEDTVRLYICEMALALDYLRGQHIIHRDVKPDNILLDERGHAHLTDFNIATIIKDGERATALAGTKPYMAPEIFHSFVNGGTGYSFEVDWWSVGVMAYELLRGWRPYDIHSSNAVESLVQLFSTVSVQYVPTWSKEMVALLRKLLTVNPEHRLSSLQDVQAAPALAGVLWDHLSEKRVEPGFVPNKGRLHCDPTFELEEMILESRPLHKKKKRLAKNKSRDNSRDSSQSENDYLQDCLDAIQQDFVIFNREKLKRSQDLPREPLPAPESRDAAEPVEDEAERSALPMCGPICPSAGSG

STK21/CIT = STK21/CIT (Homo sapiens, UniProt O14578); assay: biochemical; settings: read-out: % enzyme activity, 1 μM; Run 1, Run 2
Chain of STK21/CIT (O14578 whole entry): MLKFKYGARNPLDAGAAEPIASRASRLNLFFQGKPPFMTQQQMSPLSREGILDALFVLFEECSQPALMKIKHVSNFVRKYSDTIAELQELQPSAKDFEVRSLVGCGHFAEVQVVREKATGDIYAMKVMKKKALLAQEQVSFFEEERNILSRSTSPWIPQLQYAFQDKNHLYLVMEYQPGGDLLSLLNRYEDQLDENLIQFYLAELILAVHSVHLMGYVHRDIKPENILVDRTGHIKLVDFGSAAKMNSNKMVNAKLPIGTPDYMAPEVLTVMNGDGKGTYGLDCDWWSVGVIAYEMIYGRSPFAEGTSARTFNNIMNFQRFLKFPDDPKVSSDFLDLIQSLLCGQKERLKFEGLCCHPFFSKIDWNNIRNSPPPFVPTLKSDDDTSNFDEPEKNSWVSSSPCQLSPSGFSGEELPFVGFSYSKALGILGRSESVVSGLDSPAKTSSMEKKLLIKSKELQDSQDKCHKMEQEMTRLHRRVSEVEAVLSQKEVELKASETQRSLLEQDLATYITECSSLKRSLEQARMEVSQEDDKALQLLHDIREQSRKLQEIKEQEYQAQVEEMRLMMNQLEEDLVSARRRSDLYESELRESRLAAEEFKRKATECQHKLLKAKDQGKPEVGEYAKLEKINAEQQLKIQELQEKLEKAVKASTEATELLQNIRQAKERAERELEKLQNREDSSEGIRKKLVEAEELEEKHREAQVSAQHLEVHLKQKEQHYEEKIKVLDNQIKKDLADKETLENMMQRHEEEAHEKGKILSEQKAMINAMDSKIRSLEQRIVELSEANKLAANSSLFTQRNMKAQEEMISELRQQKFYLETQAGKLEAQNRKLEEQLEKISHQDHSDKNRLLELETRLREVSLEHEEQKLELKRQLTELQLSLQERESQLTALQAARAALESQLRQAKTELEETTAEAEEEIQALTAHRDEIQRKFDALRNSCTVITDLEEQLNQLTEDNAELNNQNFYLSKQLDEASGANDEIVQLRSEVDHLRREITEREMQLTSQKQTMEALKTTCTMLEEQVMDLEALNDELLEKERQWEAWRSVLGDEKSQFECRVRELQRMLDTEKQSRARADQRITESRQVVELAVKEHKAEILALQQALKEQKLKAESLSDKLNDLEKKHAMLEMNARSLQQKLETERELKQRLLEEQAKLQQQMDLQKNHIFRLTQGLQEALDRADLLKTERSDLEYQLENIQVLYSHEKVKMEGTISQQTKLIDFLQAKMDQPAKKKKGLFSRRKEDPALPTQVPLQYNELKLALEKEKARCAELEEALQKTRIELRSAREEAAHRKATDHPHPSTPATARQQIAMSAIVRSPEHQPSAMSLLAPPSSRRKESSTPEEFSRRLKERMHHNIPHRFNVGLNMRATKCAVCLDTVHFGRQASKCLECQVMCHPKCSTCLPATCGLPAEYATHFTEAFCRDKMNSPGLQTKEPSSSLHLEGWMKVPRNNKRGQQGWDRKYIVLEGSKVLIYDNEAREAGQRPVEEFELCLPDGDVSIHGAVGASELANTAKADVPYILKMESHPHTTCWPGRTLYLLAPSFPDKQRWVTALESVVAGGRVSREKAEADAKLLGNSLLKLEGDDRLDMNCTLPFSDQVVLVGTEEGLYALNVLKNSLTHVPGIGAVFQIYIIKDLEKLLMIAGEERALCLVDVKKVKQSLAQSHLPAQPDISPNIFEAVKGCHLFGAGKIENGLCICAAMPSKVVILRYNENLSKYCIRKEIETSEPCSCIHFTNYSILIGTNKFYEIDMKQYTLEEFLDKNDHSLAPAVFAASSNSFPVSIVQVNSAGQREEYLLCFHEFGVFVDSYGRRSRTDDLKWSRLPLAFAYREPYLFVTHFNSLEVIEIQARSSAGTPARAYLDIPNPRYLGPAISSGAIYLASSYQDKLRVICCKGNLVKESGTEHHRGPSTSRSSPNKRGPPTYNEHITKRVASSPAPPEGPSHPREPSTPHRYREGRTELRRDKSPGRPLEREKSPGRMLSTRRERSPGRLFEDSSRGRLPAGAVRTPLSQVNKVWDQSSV

TEC = biological target: T2, TEC (Homo sapiens, UniProt P42680); assay: biochemical; settings: read-out: % enzyme activity, 1 μM; Run 1, Run 2
T2 sequence (P42680 1-631): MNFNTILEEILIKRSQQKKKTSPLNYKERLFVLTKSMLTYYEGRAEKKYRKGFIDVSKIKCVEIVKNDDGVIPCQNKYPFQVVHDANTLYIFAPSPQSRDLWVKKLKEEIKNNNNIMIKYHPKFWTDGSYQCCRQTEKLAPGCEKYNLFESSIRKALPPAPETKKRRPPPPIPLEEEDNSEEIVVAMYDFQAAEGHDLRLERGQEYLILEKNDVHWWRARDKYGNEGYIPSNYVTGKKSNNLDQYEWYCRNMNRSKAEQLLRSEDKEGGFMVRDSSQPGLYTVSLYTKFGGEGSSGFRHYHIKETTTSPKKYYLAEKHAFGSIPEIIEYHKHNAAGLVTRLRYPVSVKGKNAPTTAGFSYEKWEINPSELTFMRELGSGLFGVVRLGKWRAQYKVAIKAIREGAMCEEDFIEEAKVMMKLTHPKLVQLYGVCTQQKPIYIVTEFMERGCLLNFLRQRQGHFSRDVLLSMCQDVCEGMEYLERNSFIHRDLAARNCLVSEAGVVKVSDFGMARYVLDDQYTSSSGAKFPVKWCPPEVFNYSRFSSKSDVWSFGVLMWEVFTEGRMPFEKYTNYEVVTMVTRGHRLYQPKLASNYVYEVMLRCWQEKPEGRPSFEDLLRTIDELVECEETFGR

P38a/MAPK14 = P38a/MAPK14 (Homo sapiens, UniProt Q16539); assay: biochemical; settings: read-out: % enzyme activity, 1 μM; Run 1, Run 2
Chain of P38a/MAPK14 (Q16539 whole entry): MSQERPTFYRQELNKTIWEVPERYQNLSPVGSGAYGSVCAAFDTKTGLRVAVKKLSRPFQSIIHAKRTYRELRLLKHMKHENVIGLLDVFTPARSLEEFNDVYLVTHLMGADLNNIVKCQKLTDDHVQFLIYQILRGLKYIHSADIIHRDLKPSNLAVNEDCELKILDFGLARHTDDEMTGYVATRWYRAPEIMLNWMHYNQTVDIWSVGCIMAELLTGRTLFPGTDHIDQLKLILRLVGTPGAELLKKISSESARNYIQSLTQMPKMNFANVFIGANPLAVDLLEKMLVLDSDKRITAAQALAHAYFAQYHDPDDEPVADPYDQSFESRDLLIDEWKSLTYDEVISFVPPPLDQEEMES

ERK7/MAPK15 = biological target: T3, ERK7/MAPK15 (Homo sapiens, UniProt Q8TD08); settings: 1 μM; Run 1, Run 2
T3 sequence (Q8TD08 1-544): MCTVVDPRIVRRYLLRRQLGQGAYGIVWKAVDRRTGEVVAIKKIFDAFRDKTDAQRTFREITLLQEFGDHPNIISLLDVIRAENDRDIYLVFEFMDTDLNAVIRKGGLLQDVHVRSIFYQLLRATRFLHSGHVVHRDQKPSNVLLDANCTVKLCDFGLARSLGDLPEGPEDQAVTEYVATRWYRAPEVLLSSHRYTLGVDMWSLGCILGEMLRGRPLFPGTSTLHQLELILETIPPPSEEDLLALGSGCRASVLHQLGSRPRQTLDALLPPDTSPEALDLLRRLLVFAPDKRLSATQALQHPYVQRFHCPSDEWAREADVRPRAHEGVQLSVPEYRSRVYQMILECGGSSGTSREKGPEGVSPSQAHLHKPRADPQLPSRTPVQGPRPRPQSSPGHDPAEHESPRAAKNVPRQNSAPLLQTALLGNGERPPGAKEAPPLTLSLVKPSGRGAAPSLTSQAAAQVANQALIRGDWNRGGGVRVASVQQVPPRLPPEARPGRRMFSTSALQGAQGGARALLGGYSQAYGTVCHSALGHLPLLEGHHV

CAMKK2 = CAMKK2 (Homo sapiens, UniProt Q96RR4); assay: biochemical; settings: read-out: % enzyme activity, 1 μM; Run 1, Run 2
Chain of CAMKK2 (Q96RR4 whole entry): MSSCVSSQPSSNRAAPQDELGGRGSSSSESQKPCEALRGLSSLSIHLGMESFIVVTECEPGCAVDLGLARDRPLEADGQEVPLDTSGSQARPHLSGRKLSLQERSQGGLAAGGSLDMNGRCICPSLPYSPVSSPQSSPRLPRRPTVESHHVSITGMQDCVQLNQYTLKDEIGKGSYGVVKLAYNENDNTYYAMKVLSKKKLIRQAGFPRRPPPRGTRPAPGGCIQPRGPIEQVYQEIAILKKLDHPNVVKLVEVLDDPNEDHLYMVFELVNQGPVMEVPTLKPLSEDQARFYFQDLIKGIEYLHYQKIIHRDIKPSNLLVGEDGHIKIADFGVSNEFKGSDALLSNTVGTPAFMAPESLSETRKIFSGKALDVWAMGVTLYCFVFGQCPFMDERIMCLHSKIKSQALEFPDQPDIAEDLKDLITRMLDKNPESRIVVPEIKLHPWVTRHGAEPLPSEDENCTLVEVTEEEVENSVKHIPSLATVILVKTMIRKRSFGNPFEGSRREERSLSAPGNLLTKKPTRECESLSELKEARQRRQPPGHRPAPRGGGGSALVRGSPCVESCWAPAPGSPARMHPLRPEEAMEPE

PKAcb = PKAcb (Homo sapiens, UniProt P22694); settings: 1 μM; Run 1, Run 2
NEK7 = NEK7 (Homo sapiens, UniProt Q8TDX7); settings: 1 μM; Run 1, Run 2
Chain of NEK7 (Q8TDX7 whole entry): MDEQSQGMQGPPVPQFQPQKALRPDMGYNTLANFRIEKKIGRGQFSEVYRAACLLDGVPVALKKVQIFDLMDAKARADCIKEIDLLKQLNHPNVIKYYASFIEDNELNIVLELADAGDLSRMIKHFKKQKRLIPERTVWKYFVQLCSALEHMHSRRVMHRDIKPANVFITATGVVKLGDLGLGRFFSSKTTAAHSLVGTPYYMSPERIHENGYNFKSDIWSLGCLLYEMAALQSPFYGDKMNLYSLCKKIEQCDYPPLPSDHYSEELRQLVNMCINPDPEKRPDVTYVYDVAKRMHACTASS

Row | Compound | CYP inhibition (CYP3A4-Testosterone) | remaining activity at 1 µM (KSR2) | remaining activity at 1 µM (STK32C/YANK3) | remaining activity at 1 µM (STK21/CIT) | remaining activity at 1 µM (TEC) | remaining activity at 1 µM (P38a/MAPK14) | % enzyme activity (ERK7/MAPK15) | remaining activity at 1 µM (CAMKK2) | % enzyme activity (PKAcb) | % enzyme activity (NEK7) | CYP inhibition (CYP2C9)
1 | COc1cc(-c2cncc(-c3ccc(N4CCN(C)CC4)cc3)c2C)cc(F)c1C(N)=O [Compound 26a, 2-Fluoro-6-methoxy-4-(4-methyl-5-(4-(4-methylpiperazin-1-yl)phenyl)pyridin-3-yl)benzamide] | > 50 µM | 96.9% | 86.8% | 88.8% | 108% | 92.7% | 85.69% | 71.7% | 95.19% | 96.68% | > 50 µM
2 | COc1cc(-c2cncc(-c3ccc(N4C[C@@H](C)N(C)[C@@H](C)C4)cc3)c2C)cc(F)c1C(N)=O [Compound 26c, 2-Fluoro-6-methoxy-4-(4-methyl-5-(4-((3R,5S)-3,4,5-trimethylpiperazin-1-yl)phenyl)pyridin-3-yl)benzamide] | > 50 µM | 98.5% | 93.3% | 89.1% | 106% | 97% | 96.45% | 76.4% | 96.20% | 97.32% | > 50 µM
